# Measured values as given in US20230085307A1, “PYRIDAZINONE COMPOUND AND HERBICIDE” (NISSAN CHEMICAL CORPORATION, priority 2019, published 2023).
# Experiments:
# [1] = tested on: barnyard grass; test: Test Example 5: herbicidal effect by foliage application, plastic box (Table 20, symbol H); assay type: in vivo, barnyard grass (Echinochloa crus-galli); conditions: amount of applied herbicide 320 g/ha; foliage application after 14-day growth; evaluated three weeks after application
# How it was run: (§1)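 Plants sown in sterilized diluvial soil and grown 14 days in a greenhouse at 25° C to 30° C, then sprayed on the foliage with the compound's emulsion diluted in water to a predetermined herbicide amount. Injury to weeds and crops scored three weeks after application on a visual rating scale.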
# [2] = tested on: blackgrass; test: Test Example 5: herbicidal effect by foliage application, plastic box (Table 20, symbol J); assay type: in vivo, blackgrass (Alopecurus myosuroides); conditions: amount of applied herbicide 320 g/ha; foliage application after 14-day growth; evaluated three weeks after application
# How it was run: as §1
# [3] = tested on: Italian ryegrass; test: Test Example 4: herbicidal effect by soil treatment (Table 19, symbol K); assay type: in vivo, Italian ryegrass (Lolium multiflorum); conditions: amount of applied herbicide 320 g/ha
# How it was run: (§2)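 Seeds were sown in sterilized diluvial soil and covered with about 1.5 cm of soil. An emulsion formulation diluted with water to a predetermined herbicide amount was sprayed evenly onto the soil surface. Plants grew in a greenhouse at 25° C. to 30° C., and the effect was scored three weeks after application using criteria from an earlier test.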
# [4] = tested on: barnyard grass; test: Test Example 4: herbicidal effect by soil treatment (Table 19, symbol H); assay type: in vivo, barnyard grass (Echinochloa crus-galli); conditions: amount of applied herbicide 320 g/ha
# How it was run: as §2
# [5] = tested on: windgrass; test: Test Example 4: herbicidal effect by soil treatment (Table 19, symbol L); assay type: in vivo, windgrass (Apera spica-venti); conditions: amount of applied herbicide 320 g/ha
# How it was run: as §2
# [6] = tested on: lambsquarters; test: Test Example 5: herbicidal effect by foliage application, plastic box (Table 20, symbol O); assay type: in vivo, lambsquarters (Chenopodium album); conditions: amount of applied herbicide 320 g/ha; foliage application after 14-day growth; evaluated three weeks after application
# How it was run: as §1
# [7] = tested on: wild oat; test: Test Example 4: herbicidal effect by soil treatment (Table 19, symbol I); assay type: in vivo, wild oat (Avena fatua); conditions: amount of applied herbicide 320 g/ha
# How it was run: as §2
# [8] = tested on: velvetleaf; test: Test Example 4: herbicidal effect by soil treatment (Table 19, symbol M); assay type: in vivo, velvetleaf (Abutilon theophrasti); conditions: amount of applied herbicide 320 g/ha
# How it was run: as §2
# [9] = tested on: wild oat; test: Test Example 5: herbicidal effect by foliage application, plastic box (Table 20, symbol I); assay type: in vivo, wild oat (Avena fatua); conditions: amount of applied herbicide 320 g/ha; foliage application after 14-day growth; evaluated three weeks after application
# How it was run: as §1
# [10] = tested on: persian speedwell; test: Test Example 5: herbicidal effect by foliage application, plastic box (Table 20, symbol R); assay type: in vivo, Persian speedwell (Veronica persica); conditions: amount of applied herbicide 320 g/ha; foliage application after 14-day growth; evaluated three weeks after application
# How it was run: as §1
# [11] = tested on: Chinese sprangletop; test: Test Example 3: herbicidal effect by foliage application, Wagner pot (Table 18, symbol D); assay type: in vivo, chinese sprangletop (Leptochloa chinensis); conditions: 320 g/ha
# How it was run: (§3)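 Plants were sown in alluvial soil held under 0.1–0.5 cm standing water and grown 14 days in a greenhouse at 25–30 °C. An emulsifiable formulation, water-diluted to the set dose, was then sprayed onto the foliage, and effects were scored three weeks later using previously defined criteria.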
# [12] = tested on: velvetleaf; test: Test Example 5: herbicidal effect by foliage application, plastic box (Table 20, symbol M); assay type: in vivo, velvetleaf (Abutilon theophrasti); conditions: amount of applied herbicide 320 g/ha; foliage application after 14-day growth; evaluated three weeks after application
# How it was run: as §1
# [13] = tested on: chickweed; test: Test Example 4: herbicidal effect by soil treatment (Table 19, symbol P); assay type: in vivo, common chickweed (Stellaria media); conditions: amount of applied herbicide 320 g/ha
# How it was run: as §2
# [14] = tested on: redroot pigweed; test: Test Example 5: herbicidal effect by foliage application, plastic box (Table 20, symbol N); assay type: in vivo, redroot pigweed (Amaranthus retroflexus); conditions: amount of applied herbicide 320 g/ha; foliage application after 14-day growth; evaluated three weeks after application
# How it was run: as §1
# [15] = tested on: southern crabgrass; test: Test Example 4: herbicidal effect by soil treatment (Table 19, symbol F); assay type: in vivo, southern crabgrass (Digitaria ciliaris); conditions: amount of applied herbicide 320 g/ha
# How it was run: as §2
# [16] = tested on: southern crabgrass; test: Test Example 5: herbicidal effect by foliage application, plastic box (Table 20, symbol F); assay type: in vivo, southern crabgrass (Digitaria ciliaris); conditions: amount of applied herbicide 320 g/ha; foliage application after 14-day growth; evaluated three weeks after application
# How it was run: as §1
# [17] = tested on: redroot pigweed; test: Test Example 4: herbicidal effect by soil treatment (Table 19, symbol N); assay type: in vivo, redroot pigweed (Amaranthus retroflexus); conditions: amount of applied herbicide 320 g/ha
# How it was run: as §2
# [18] = tested on: Italian ryegrass; test: Test Example 5: herbicidal effect by foliage application, plastic box (Table 20, symbol K); assay type: in vivo, Italian ryegrass (Lolium multiflorum); conditions: amount of applied herbicide 320 g/ha; foliage application after 14-day growth; evaluated three weeks after application
# How it was run: as §1
# [19] = tested on: lambsquarters; test: Test Example 4: herbicidal effect by soil treatment (Table 19, symbol O); assay type: in vivo, lambsquarters (Chenopodium album); conditions: amount of applied herbicide 320 g/ha
# How it was run: as §2
# [20] = tested on: barnyard grass; test: Test Example 3: herbicidal effect by foliage application, Wagner pot (Table 18, symbol H); assay type: in vivo, barnyard grass (Echinochloa crus-galli); conditions: 320 g/ha
# How it was run: as §3
# [21] = tested on: green foxtail; test: Test Example 5: herbicidal effect by foliage application, plastic box (Table 20, symbol G); assay type: in vivo, green foxtail (Setaria viridis); conditions: amount of applied herbicide 320 g/ha; foliage application after 14-day growth; evaluated three weeks after application
# How it was run: as §1
# [22] = tested on: rice flat sedge; test: Test Example 3: herbicidal effect by foliage application, Wagner pot (Table 18, symbol E); assay type: in vivo, rice flat sedge (Cyperus iria); conditions: 320 g/ha
# How it was run: as §3
# [23] = tested on: windgrass; test: Test Example 5: herbicidal effect by foliage application, plastic box (Table 20, symbol L); assay type: in vivo, windgrass (Apera spica-venti); conditions: amount of applied herbicide 320 g/ha; foliage application after 14-day growth; evaluated three weeks after application
# How it was run: as §1
# [24] = tested on: green foxtail; test: Test Example 4: herbicidal effect by soil treatment (Table 19, symbol G); assay type: in vivo, green foxtail (Setaria viridis); conditions: amount of applied herbicide 320 g/ha
# How it was run: as §2
# [25] = tested on: persian speedwell; test: Test Example 4: herbicidal effect by soil treatment (Table 19, symbol R); assay type: in vivo, Persian speedwell (Veronica persica); conditions: amount of applied herbicide 320 g/ha
# How it was run: as §2
# [26] = tested on: blackgrass; test: Test Example 4: herbicidal effect by soil treatment (Table 19, symbol J); assay type: in vivo, blackgrass (Alopecurus myosuroides); conditions: amount of applied herbicide 320 g/ha
# How it was run: as §2
# [27] = tested on: chickweed; test: Test Example 5: herbicidal effect by foliage application, plastic box (Table 20, symbol P); assay type: in vivo, common chickweed (Stellaria media); conditions: amount of applied herbicide 320 g/ha; foliage application after 14-day growth; evaluated three weeks after application
# How it was run: as §1
smiles,measurement,setting,value
CCSc1ccc(-c2sc3c(Cl)cccc3c2-c2c(O)c(C)nn(C)c2=O)cc1 [4-094],"Herbicidal effect by foliage application, H: barnyard grass",[1],3 (Herbicidal rate of 40% or more and less than 70%)
same,"Herbicidal effect by foliage application, J: blackgrass",[2],5 (Herbicidal rate of 90% or more (almost completely withered))
same,"Herbicidal effect by soil treatment, K: Italian ryegrass",[3],2 (Herbicidal rate of 20% or more and less than 40%)
same,"Herbicidal effect by soil treatment, H: barnyard grass",[4],0 (Herbicidal rate of 5% or less (almost no effect))
same,"Herbicidal effect by soil treatment, L: windgrass",[5],0 (Herbicidal rate of 5% or less (almost no effect))
same,"Herbicidal effect by foliage application, O: lambsquarters",[6],5 (Herbicidal rate of 90% or more (almost completely withered))
same,"Herbicidal effect by soil treatment, I: wild oat",[7],0 (Herbicidal rate of 5% or less (almost no effect))
same,"Herbicidal effect by soil treatment, M: velvetleaf",[8],0 (Herbicidal rate of 5% or less (almost no effect))
same,"Herbicidal effect by foliage application, I: wild oat",[9],4 (Herbicidal rate of 70% or more and less than 90%)
same,"Herbicidal effect by foliage application, R: persian speedwell",[10],5 (Herbicidal rate of 90% or more (almost completely withered))
same,herbicidal effect on Chinese sprangletop (D),[11],4 (Herbicidal rate of 70% or more and less than 90%)
same,"Herbicidal effect by foliage application, M: velvetleaf",[12],4 (Herbicidal rate of 70% or more and less than 90%)
same,"Herbicidal effect by soil treatment, P: chickweed",[13],0 (Herbicidal rate of 5% or less (almost no effect))
same,"Herbicidal effect by foliage application, N: redroot pigweed",[14],5 (Herbicidal rate of 90% or more (almost completely withered))
same,"Herbicidal effect by soil treatment, F: southern crabgrass",[15],0 (Herbicidal rate of 5% or less (almost no effect))
same,"Herbicidal effect by foliage application, F: southern crabgrass",[16],0 (Herbicidal rate of 5% or less (almost no effect))
same,"Herbicidal effect by soil treatment, N: redroot pigweed",[17],5 (Herbicidal rate of 90% or more (almost completely withered))
same,"Herbicidal effect by foliage application, K: Italian ryegrass",[18],4 (Herbicidal rate of 70% or more and less than 90%)
same,"Herbicidal effect by soil treatment, O: lambsquarters",[19],3 (Herbicidal rate of 40% or more and less than 70%)
same,herbicidal effect on barnyard grass (H),[20],5 (Herbicidal rate of 90% or more (almost completely withered))
same,"Herbicidal effect by foliage application, G: green foxtail",[21],4 (Herbicidal rate of 70% or more and less than 90%)
same,herbicidal effect on rice flat sedge (E),[22],4 (Herbicidal rate of 70% or more and less than 90%)
same,"Herbicidal effect by foliage application, L: windgrass",[23],5 (Herbicidal rate of 90% or more (almost completely withered))
same,"Herbicidal effect by soil treatment, G: green foxtail",[24],0 (Herbicidal rate of 5% or less (almost no effect))
same,"Herbicidal effect by soil treatment, R: persian speedwell",[25],3 (Herbicidal rate of 40% or more and less than 70%)
same,"Herbicidal effect by soil treatment, J: blackgrass",[26],0 (Herbicidal rate of 5% or less (almost no effect))
same,"Herbicidal effect by foliage application, P: chickweed",[27],5 (Herbicidal rate of 90% or more (almost completely withered))
